Laboratory results: US20260109721A1, “IONIZABLE CATIONIC LIPIDS INCORPORATING SILICON: SYNTHESIS AND LNP FORMULATION” (priority 2023, published 2026)

What was measured:
[1] = LNP size, PDI and zeta potential by Dynamic Light Scattering (Method A); type: physicochemical; conditions: LNP formulated with the lipid, DLS
Experimental: (§1) The synthesized lipids were tested in term of in vitro transfection efficacy and toxicity on HeLa cells. In order to perform the mentioned biological tests, appropriate LNPs had to be formulated from the synthesized lipids. The formulation technique was different in Method A and B. The particle size, polydispersity index (PDI) and zeta potential of resulting LNPs were determined by means of Dynamic Light Scattering technique (DLS). Prior to biological testing the encapsulation efficiency (EE) of the loaded LNPs was determined by using RiboGreen RNA assay. In case of Method A Luc mRNA while in case of Method B GFP mRNA was transfected into the cells. In parallel with the transfection experiments, toxicity of the investigated LNPs was determined, in case of Method A resazurin assay while in case of Method B MTT assay was used. Additionally, the toxicity of the lipids was investigated on HepG2 cells and IC50 values were determined.
• 1. If needed, prepare stock solutions by solving known amounts of lipid powder into an appropriate solvent. The recommended solvent is ethanol and the recommended concentration is typically in the range 10-50 mM. Higher concentrations are preferred to allow flexibility on mRNA-LNP concentration. • 2. Remove the lipid stock solutions from the −20° C. freezer. For long-term storage, −80° C. is used. • 3. Check the vials for precipitation, DOPE (CAS #4004-05-1) (20 mM) and DSPE-PEG (CAS #474922-26-4) (5 mM) may need a 5-30 minute incubation step at 37° C. with intermittent vortexing to resuspend all contents. […] As a last resort, lipids may be heated to 50° C. to resuspend, time should be kept as short as possible to prevent oxidation or other modifying or degradative processes. • 4. Mix the lipids by vortexing for 2 minutes. • 5. […] Cooling the solution prevent excessive evaporation of ethanol or similar solvents upon opening. • 6. Meanwhile, thaw the RNA samples, including the latest SecNLuc control, by inserting the frozen tube in a room temperature aluminium block. • 7. Prepare for each LNP-formulation with identical mRNA component, an RNA master mix according to Table 1 below in a fresh tube. Use of a master mix allows more precise comparison of lipid formulations relative to each other. Split the master mix over a number of fresh tubes equal to the number of samples+controls. Each tube contains 375 μl of mRNA in 10 mM Citrate pH 4.0. • 8. Prepare for each LNP formulation with identical lipid composition a Lipid master mix according to Table 1 below in a fresh tube, exclude the lipid of interest. Use of a master mix allows more precise comparison of the novel ionizable lipid relative to each other. Split the master mix over a number of fresh tubes equal to the number of samples+controls. Each tube contains 65.5 μl of lipid master mix. • 9. Add the ionizable lipid of interest to the equally divide lipid master mix. Mix well by pipetting up and down. Label the tube according to the ionizable lipid used. • 10. Power on the L1 FM (L1 Formulation Machine uses 2 high-speed syringe pumps to mix lipids in organic solvents with mRNA in acidic aquous solution to generate well-defined LNPs. The microfluidic mixing chip involves a dean-type structure performing the high-efficiency mixing at a total flow rate (TFR) of around 12 ml/min at a 3:1 mixing ratio) and allow it to do a calibration of motor positions.
• 18. Fill a fresh syringe (C) through a blunt 18G stainless steel needle with the previously prepared RNA mixture of step 6. The volume should be approximately 85% of total formulation volume+25 μl (dead-volume). Make sure to remove all air bubbles by tapping. • 19. Fill a fresh syringe (D) through a blunt 18G stainless steel needle with the Lipid master mix. The volume should be approximately […] of total formulation volume+25 μl (dead-volume). Again, Make sure to remove all bubbles. • 20. Attach the syringes in the correct orientation, syringe A on the left and syringe B on the right • 21.

HeLa cells = experiment: Transfection efficiency with Luciferase (SecNLuc) mRNA, Nano-Glo assay (Method A); type: cell-based; conditions: Luc mRNA, 24 h, luminescence; for Transfection 10 ng mRNA: 10 ng mRNA/well; for Transfection 50 ng mRNA: 50 ng mRNA/well; for Transfection 100 ng mRNA: 100 ng mRNA/well
Experimental: as §1
• 1. Prepare mRNA solution by adding 100 ng mRNA (SecNLuc, #P009024, RiboPro) to 5 μl Opti-MEM • multiply by number of wells, include different concentrations and add 10% extra • a standard set-up we use is 100 ng-50 ng-10 ng mRNA/well in triplicate, which would need […] mRNA (includes 10% extra)
• 2. (If applicable) Prepare different concentrations in Opti-MEM (for instance 100/50/10 ng). • 3. Add 10 μl to each well and mix carefully by pipetting. • 4. Mix by swirling the plate horizontally at modest speed. Reverse in direction 3 times. • 5. Incubate for 24 hours (incubator).
This protocol is applied to measure luciferase activity for secreted NanoLuc and is based on the protocol by Promega (Nano-Glo® Luciferase Assay System #N1110-1150). The protocol is designed for a 384-wells plate, but volumes can be changed accordingly for other plates.
• 1. Plate cells (HeLa) in 96-well plate, grow until 80% confluent and transfect with SecNanoLuc mRNA and incubate for the desired period (24 h). • 2. After incubation, the translated protein is accumulated in the medium. Transfer medium to a new plate or tubes. • 3. Transfer 12 μl of each sample to a black-walled, clear-bottom 384-well plate • Black-walled plates are important to prevent shine-through of luminescence from other wells; alternatively, multiple wells between samples can be left empty. • 4. Set-up plate reader • 5. Prepare the desired amount of Nano-Glo® Luciferase Assay Reagent by combining one volume of Nano-Glo® Luciferase Assay Substrate with 50 volumes of Nano-Glo® Luciferase Assay Buffer: • a. composition: 100 mM MES pH 6; 1 mM EDTA; […]; 150 mM KCl; 1 mM DTT; 35 mM Thiourea; • b. briefly spin tubes containing substrate in a microcentrifuge before use. • 6. Add and mix (by pipetting) 12 μl Nano-Glo® Luciferase Assay Reagent per well • Wait approximately 3 minutes before measuring luminescence. […] Measure luminescence in plate reader using standard protocol luciferase (this includes mixing sample in plate reader)

Row | SMILES | PDI [1] | Size (nm) [1] [nm] | Zeta potential (mV) [1] [mV] | Transfection 10 ng mRNA (HeLa cells) | Transfection 50 ng mRNA (HeLa cells) | Transfection 100 ng mRNA (HeLa cells)
1 | CCCCC/C=C\C/C=C\CCCCCCCCOC(CCCCCCC/C=C\C/C=C\CCCCC)O[Si](C)(C)OCCCCCCN(CCO)CCO (stereo not drawn) [Example 48, (23Z,26Z)-13-((8Z,11Z)-heptadeca-8,11-dien-1-yl)-3-(2-hydroxyethyl)-11,11-dimethyl-10,12,14-trioxa-3-aza-11-siladotriaconta-23,26-dien-1-ol] | 0.052 | 149.6 | −7.501 | 5.52E+02 | 1.65E+03 | 1.82E+03
2 | CCCCCCCCCCCCCCCCOC(CCCCCCCCCCCCCCC)O[Si](C)(C)OCCCCCCN(CCO)CCO (stereo not drawn) [Example 49, 3-(2-hydroxyethyl)-11,11-dimethyl-13-pentadecyl-10,12,14-trioxa-3-aza-11-silatriacontan-1-ol] | 0.396 | 171.9 | −12.77 | 1.35E+05 | 6.74E+05 | 1.20E+06
3 | CCCCCCCC/C=C\CCCCCCCC(OCC(CCCCCC)CCCCCCCC)O[Si](C)(C)OCCCCCCN(CCO)CCO (stereo not drawn) [Example 50, (Z)-13-(heptadec-8-en-1-yl)-16-hexyl-3-(2-hydroxyethyl)-11,11-dimethyl-10,12,14-trioxa-3-aza-11-silatetracosan-1-ol] | 0.022 | 153.8 | −10.38 | 5.85E+04 | 2.12E+06 | 8.19E+06
4 | CCCCCCCC/C=C\CCCCCCCCOC(CC[C@@H](C)C1CCC2C3CCC4C[C@H](OC)CC[C@]4(C)C3CC[C@@]21C)O[Si](C)(C)OCCCCCCN(CCO)CCO (stereo partly drawn) [Example 51, (Z)-3-(2-hydroxyethyl)-13-((3R)-3-((3R,10S,13R)-3-methoxy-10,13-dimethylhexadecahydro-1H-cyclopenta[a]phenanthren-17-yl)butyl)-11,11-dimethyl-10,12,14-trioxa-3-aza-11-siladotriacont-23-en-1-ol] | 0.060 | 135.6 | −8.124 | 1.05E+04 | 1.70E+05 | 7.44E+05
5 | CCCCC/C=C\C/C=C\CCCCCCCCOC(CC[C@@H](C)C1CCC2C3CCC4C[C@H](OC)CC[C@]4(C)C3CC[C@@]21C)O[Si](C)(C)OCCCCCCN(CCO)CCO (stereo partly drawn) [Example 52, (23Z,26Z)-3-(2-hydroxyethyl)-13-((3R)-3-((3R,10S,13R)-3-methoxy-10,13-dimethylhexadecahydro-1H-cyclopenta[a]phenanthren-17-yl)butyl)-11,11-dimethyl-10,12,14-trioxa-3-aza-11-siladotriaconta-23,26-dien-1-ol] | 0.005 | 137.6 | −9.231 | 1.02E+05 | 1.65E+06 | 9.16E+06
6 | CCCCC/C=C\C/C=C\CCCCCCCCOC(CCCCCCC/C=C\C/C=C\CCCCC)O[Si](C)(C)OCCCCCCN1CCOCC1 (stereo not drawn) [Example 55, 4-((20Z,23Z)-10-((8Z,11Z)-heptadeca-8,11-dien-1-yl)-8,8-dimethyl-7,9,11-trioxa-8-silanonacosa-20,23-dien-1-yl)morpholine] | 0.441 | 319.9 | −10.81 | 1.32E+06 | 7.68E+06 | 1.03E+07
7 | CCCCC/C=C\C/C=C\CCCCCCCCOC(CCCCCCC/C=C\C/C=C\CCCCC)O[Si](C)(C)OCCCCCCN(C)CCO (stereo not drawn) [Example 56, (23Z,26Z)-13-((8Z,11Z)-heptadeca-8,11-dien-1-yl)-3,11,11-trimethyl-10,12,14-trioxa-3-aza-11-siladotriaconta-23,26-dien-1-ol] | 0.057 | 149.5 | −10.08 | 3.00E+00 | 5.63E+01 | 6.90E+01
8 | CCCCC/C=C\C/C=C\CCCCCCCCOC(CCCCCCC/C=C\C/C=C\CCCCC)O[Si](C)(C)OCCCCCCN1CCCCC1 (stereo not drawn) [Example 57, 1-((20Z,23Z)-10-((8Z,11Z)-heptadeca-8,11-dien-1-yl)-8,8-dimethyl-7,9,11-trioxa-8-silanonacosa-20,23-dien-1-yl)piperidine] | 0.041 | 160.3 | −11.06 | 9.82E+04 | 1.48E+06 | 5.16E+06
9 | CCCCC/C=C\C/C=C\CCCCCCCCOC(CCCCCCC/C=C\C/C=C\CCCCC)O[Si](C)(C)OCCCCCCN1CCN(CCO)CC1 (stereo not drawn) [Example 58, 2-(4-((20Z,23Z)-10-((8Z,11Z)-heptadeca-8,11-dien-1-yl)-8,8-dimethyl-7,9,11-trioxa-8-silanonacosa-20,23-dien-1-yl)piperazin-1-yl)ethan-1-ol] | 0.011 | 160.6 | −11.86 | 3.85E+02 | 3.92E+03 | 7.51E+03
